The text below walks through data of ChEMBL document CHEMBL1201862, “PubChem BioAssay data set” (2004).

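Growth conditions: 96-well plates. Treatment: test compound, 48 hours, 5 concentrations. Analysis: linear interpolation between bracketing concentrations; unreached endpoints set to highest concentration. Abbreviation: GI50, concentration required for 50% inhibition of growth.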 Activity calls are given as the source filed them. Cut-off read from the data, not from the text of the source: active = GI50 up to about 1.1 µM and inactive = higher.

Some test systems named below: CAKI-1; CCRF-CEM; COLO 205; DU-145; HCC 2998; HT-29; Hs-578T; M14; OVCAR-3; OVCAR-4; RPMI-8226; RXF 393; SF-295; SK-MEL-5; SN12C; SNB-19; SR; SW-620; UACC-62; UO-31.
Common to all, as to experiment: DTP human tumour cell line panel, 48 h

The term GI50 denotes the concentration at which growth is held to half of that of the control. On to `CC(C)[Si](OCC/C=C/C1CCC(=O)C1C(O)C1CCCCC1)(C(C)C)C(C)C` (configuration not stated), for which the GI50 is 14.7 µM (inactive) with CAKI-1; 19.5 µM (inactive) with CCRF-CEM; 16.3 µM (inactive) with COLO 205; 16.4 µM (inactive) with DU-145; 8.99 µM (inactive) in the experiment on HCC 2998; 13.2 µM (inactive) in the experiment with HT-29. In addition, the GI50 in the experiment on Hs-578T was 18.1 µM (inactive); with M14 it was 17.2 µM (inactive); with OVCAR-3, 16.5 µM (inactive); with OVCAR-4 it was 20.1 µM (inactive); in the experiment with RPMI-8226, 13.7 µM (inactive); in the experiment on RXF 393 it was 8.89 µM (inactive). Moreover, the GI50 was 16 µM (inactive) with SF-295; 14.3 µM (inactive) in the experiment with SK-MEL-5; 18.2 µM (inactive) with SN12C; 17.7 µM (inactive) in the experiment with SNB-19; 4.29 µM (inactive) in the experiment with SR; 16 µM (inactive) in the experiment on SW-620. The GI50 with UACC-62 is 14.9 µM (inactive); with UO-31 it was 16.6 µM (inactive).

On to `CN(C)c1c(Cl)c(=O)oc2c1ccc1nc(-c3ccccc3)sc12`, for which the GI50 in the experiment with CAKI-1, in the experiment with CCRF-CEM, with COLO 205, in the experiment on DU-145, in the experiment on HCC 2998 and in the experiment with HT-29 was > 100 µM (inactive) throughout. Also, the GI50 is > 100 µM (inactive) with Hs-578T; > 100 µM (inactive) in the experiment on M14; > 100 µM (inactive) with OVCAR-3; > 100 µM (inactive) with OVCAR-4; > 100 µM (inactive) with RPMI-8226; 55.3 µM (inactive) in the experiment with RXF 393. In addition, the GI50 in the experiment on SF-295, with SK-MEL-5, with SN12C, in the experiment with SNB-19, in the experiment on SR and in the experiment on SW-620 was > 100 µM (inactive) in each case. Moreover, the GI50 with UACC-62 was 64.6 µM (inactive); in the experiment with UO-31 it was > 100 µM (inactive).

With `O/N=C1\CC2(N3CCOCC3)CCC1(c1ccccc1)CC2`, the GI50 in the experiment with CAKI-1, in the experiment on CCRF-CEM, in the experiment on COLO 205, in the experiment on DU-145, in the experiment on HCC 2998 and in the experiment with HT-29 was > 100 µM (inactive) throughout. The GI50 in the experiment on Hs-578T, in the experiment on M14, with OVCAR-3, with OVCAR-4, in the experiment with RPMI-8226 and in the experiment on RXF 393 was > 100 µM (inactive) throughout. Also, the GI50 with SF-295, with SK-MEL-5, in the experiment on SN12C, with SNB-19, with SR and in the experiment with SW-620 was > 100 µM (inactive) in each case. Moreover, the GI50 in the experiment with UACC-62 and with UO-31 was > 100 µM (inactive) throughout.

For `Oc1ccc(Cl)cc1-c1cc(-c2ccccc2)nc(NCN2CCCCC2)n1`, the GI50 was 8.81 µM (inactive) in the experiment with CAKI-1; > 100 µM (inactive) in the experiment on COLO 205; > 100 µM (inactive) in the experiment on DU-145; > 100 µM (inactive) in the experiment with HCC 2998; > 100 µM (inactive) in the experiment with HT-29; > 100 µM (inactive) in the experiment on Hs-578T. Also, the GI50 in the experiment with M14 is > 100 µM (inactive); in the experiment on OVCAR-3, > 100 µM (inactive); with OVCAR-4 it was > 100 µM (inactive); in the experiment on RPMI-8226, > 100 µM (inactive); in the experiment with RXF 393, > 100 µM (inactive); in the experiment on SK-MEL-5, 15.8 µM (inactive). The GI50 in the experiment with SN12C was > 100 µM (inactive); with SNB-19, > 100 µM (inactive); in the experiment on SR, 4.19 µM (inactive); in the experiment with SW-620, > 100 µM (inactive); in the experiment with UACC-62, > 100 µM (inactive); in the experiment on UO-31, > 100 µM (inactive).

Regarding `CC(C)(C)OC(=O)NC(Cc1ccc(OCc2ccccc2)cn1)C(N)=O` (configuration not stated), the GI50 with CAKI-1, with CCRF-CEM, in the experiment on COLO 205, in the experiment on DU-145, in the experiment with HCC 2998 and with HT-29 was > 100 µM (inactive) throughout. Besides, the GI50 in the experiment with Hs-578T is > 100 µM (inactive); in the experiment on OVCAR-3, 94.8 µM (inactive); in the experiment on OVCAR-4, 45.7 µM (inactive); with RPMI-8226, > 100 µM (inactive); in the experiment with RXF 393, > 100 µM (inactive); in the experiment on SF-295, > 100 µM (inactive). Besides, the GI50 was 26 µM (inactive) in the experiment on SK-MEL-5; > 100 µM (inactive) in the experiment with SN12C; > 100 µM (inactive) in the experiment on SNB-19; > 100 µM (inactive) in the experiment with SR; > 100 µM (inactive) with SW-620; 82.6 µM (inactive) in the experiment on UO-31.

Consider `Cc1cccc(NC(=S)Nc2ccc(Cl)cc2)n1`, for which the GI50 with CAKI-1, in the experiment with CCRF-CEM, in the experiment on COLO 205, in the experiment with DU-145, with HCC 2998 and in the experiment with HT-29 was > 100 µM (inactive) in each case. The GI50 in the experiment on Hs-578T, with M14, in the experiment on OVCAR-4, in the experiment with RPMI-8226, with RXF 393 and with SF-295 was > 100 µM (inactive) in each case. For the same compound, the GI50 with SK-MEL-5, with SNB-19, in the experiment with SR, in the experiment on SW-620, with UACC-62 and in the experiment with UO-31 was > 100 µM (inactive) each time.

`N=C(N)c1ccc(C(NC(=O)CNS(=O)(=O)c2ccc3ccccc3c2)P(=O)(Oc2ccccc2)Oc2ccccc2)cc1` (configuration not stated): the GI50 in the experiment on CAKI-1 was 67.5 µM (inactive); in the experiment with CCRF-CEM, 29.8 µM (inactive); in the experiment on COLO 205, > 100 µM (inactive); in the experiment on DU-145, > 100 µM (inactive); in the experiment with HCC 2998, > 100 µM (inactive); with HT-29, 98.6 µM (inactive). Moreover, the GI50 with Hs-578T is 35.2 µM (inactive); in the experiment with M14 it was 45.2 µM (inactive); with OVCAR-3, > 100 µM (inactive); in the experiment on OVCAR-4, > 100 µM (inactive); in the experiment with RPMI-8226 it was 46.3 µM (inactive); with RXF 393, > 100 µM (inactive). The GI50 was 39.1 µM (inactive) with SK-MEL-5; 27.7 µM (inactive) in the experiment on SN12C; 47 µM (inactive) in the experiment on SNB-19; 29.4 µM (inactive) in the experiment on SR; 53.2 µM (inactive) in the experiment on SW-620; 44.1 µM (inactive) in the experiment on UACC-62. For the same compound, the GI50 in the experiment on UO-31 is 40.3 µM (inactive).

Take `COc1nc2c(c(=O)n1C)N(C(C)=O)C1C(N2)OCC(OC(C)=O)C1OC(C)=O` (configuration not stated): the GI50 with CAKI-1, in the experiment on CCRF-CEM, in the experiment on COLO 205, in the experiment with DU-145, in the experiment with HCC 2998 and with HT-29 was > 10 µM (inactive) throughout. For the same compound, the GI50 with Hs-578T, in the experiment on M14, with OVCAR-3, in the experiment on OVCAR-4, in the experiment on RPMI-8226 and with RXF 393 was > 10 µM (inactive) each time. In addition, the GI50 in the experiment on SF-295, in the experiment on SK-MEL-5, in the experiment with SN12C, in the experiment on SNB-19, in the experiment on SR and in the experiment with SW-620 was > 10 µM (inactive) in each case. Moreover, the GI50 in the experiment on UACC-62 and with UO-31 was > 10 µM (inactive) in each case.

On to `c1csc(-c2ccsc2-c2cccs2)c1`, for which the GI50 was > 100 µM (inactive) with CAKI-1; 76.9 µM (inactive) with CCRF-CEM; 52.2 µM (inactive) in the experiment with COLO 205; > 100 µM (inactive) in the experiment on DU-145; 53.7 µM (inactive) in the experiment on HCC 2998; > 100 µM (inactive) with HT-29. For the same compound, the GI50 in the experiment with Hs-578T is 52.8 µM (inactive); in the experiment on M14, 59.2 µM (inactive); in the experiment on OVCAR-3, > 100 µM (inactive); in the experiment on OVCAR-4, 33 µM (inactive); in the experiment on RPMI-8226 it was 16.8 µM (inactive); in the experiment on RXF 393 it was 44.9 µM (inactive). For the same compound, the GI50 with SF-295 is > 100 µM (inactive); with SK-MEL-5, 98.9 µM (inactive); in the experiment with SN12C it was > 100 µM (inactive); in the experiment on SR it was 1.18 µM (inactive); with SW-620 it was 80.4 µM (inactive); in the experiment on UACC-62, > 100 µM (inactive). The GI50 in the experiment with UO-31 was 39.5 µM (inactive).

For `C=C(C)[C@@H]1CC[C@]2(C(=O)O)CC[C@]3(C)[C@H](CC[C@@H]4[C@@]5(C)CC(=O)C(C)(C)[C@@H]5CC[C@]43C)[C@@H]12`, the GI50 was 12.2 µM (inactive) with CAKI-1; 0.574 µM (active) with CCRF-CEM; 4.68 µM (inactive) in the experiment on COLO 205; 12.5 µM (inactive) with DU-145; 5.9 µM (inactive) with HCC 2998; 7.19 µM (inactive) in the experiment with HT-29. The GI50 in the experiment on Hs-578T is 9.48 µM (inactive); in the experiment with M14, 8.65 µM (inactive); in the experiment with OVCAR-3, 6.38 µM (inactive); in the experiment on OVCAR-4, 15 µM (inactive); in the experiment on RPMI-8226, 4.48 µM (inactive); in the experiment with RXF 393, 7.87 µM (inactive). For the same compound, the GI50 in the experiment on SF-295 is 6.47 µM (inactive); with SK-MEL-5 it was 5.7 µM (inactive); in the experiment on SN12C, 4.46 µM (inactive); in the experiment on SNB-19 it was 11.7 µM (inactive); with SR, 5.13 µM (inactive); with SW-620, 7.23 µM (inactive). Moreover, the GI50 is 3.28 µM (inactive) in the experiment with UACC-62 and 7.29 µM (inactive) in the experiment with UO-31.
